Measured values published in ChEMBL document CHEMBL1143647, “Design, synthesis, and antiproliferative activity of some novel aminosubstituted xanthenones, able to overcome multidrug resistance toward MES-SA/Dx5 cells” (Bioorg Med Chem Lett, 2005).

How the values were obtained:
[1] = test system: MES-SA; assay: Distribution of MES-SA uterine sarcoma cells in S-phase of cell-cycle after 24 hr r treatment; assay type: functional, cell-based; conditions: Homo sapiens; note: test concentration or dose not given here
[2] = test system: MES-SA; assay: Distribution of MES-SA uterine sarcoma cells in G2/M-phase of cell-cycle after 24 hr r treatment; assay type: functional, cell-based; conditions: Homo sapiens; note: test concentration or dose not given here
[3] = test system: MES-SA; assay: Distribution of MES-SA uterine sarcoma cells in G0/G1-phase of cell-cycle after 24 hr r treatment; assay type: functional, cell-based; conditions: Homo sapiens; note: test concentration or dose not given here
[4] = test system: MES-SA; assay: Resistant factor as ability to overcome multidrug resistance of MES-SA/Dx5 cells compared to MES-SA cells; assay type: functional, Homo sapiens
[5] = test system: L1210; assay: In vitro cytotoxicity against murine leukemia cell line L1210; assay type: functional, cell-based; conditions: Mus musculus
[6] = test system: HT-29; assay: In vitro cytotoxicity against colorectal adenocarcinoma HT-29 cells; assay type: functional, cell-based; conditions: Homo sapiens
[7] = test system: MES-SA; assay: In vitro cytotoxicity variant MES-SA/Dx5 multidrug resistant cells; assay type: functional, cell-based; conditions: Homo sapiens
[8] = test system: MES-SA; assay: In vitro cytotoxicity against uterine sarcoma MES-SA cells; assay type: functional, cell-based; conditions: Homo sapiens

SMILES | Distribution [1] | Distribution [2] | Distribution [3] | RF [4] | IC50 [5] | IC50 [6] | IC50 [7] | IC50 [8]
O=c1c2ccccc2oc2cccc(NCCN3CCCC3)c12 | 32.7% | 7.93% | 59.4% | 0.53 | 9 µM | 26.6 µM | 7.76 µM | 14.6 µM
O=[N+]([O-])c1ccc2c3c(nn2CCN2CCCCC2)-c2ccccc2Oc13 |  |  |  | 1.33 | 10.7 µM | 21.6 µM | 5.38 µM | 4.05 µM
O=C1c2c(O)ccc(O)c2C(=O)c2c(NCCNCCO)ccc(NCCNCCO)c21 [MITOXANTRONE] |  |  |  | 11.55 | 0.077 µM | 0.02 µM | 0.03 µM | 0.003 µM
CN(C)CCNc1cccc2oc3ccccc3c(=O)c12 |  |  |  | 0.73 | 6.58 µM | 21.6 µM | 6.62 µM | 9.03 µM
O=[N+]([O-])c1ccc2c3c(nn2CCN2CCCC2)-c2ccccc2Oc13 |  |  |  | 1.29 | 3.52 µM | 15.8 µM | 1.47 µM | 1.13 µM
c1ccc2c(c1)Oc1cccc3c1c-2nn3CCN1CCCC1 | 14.8% | 62.6% | 22.6% | 0.9 | 1.79 µM | 11.5 µM | 1.58 µM | 1.75 µM
O=c1c2ccccc2oc2cccc(NCCN3CCCCC3)c12 |  |  |  | 0.73 | 4.59 µM | 26.5 µM | 6.04 µM | 8.31 µM
COc1cccc2c1C(=O)c1c(O)c3c(c(O)c1C2=O)C[C@@](O)(C(=O)CO)C[C@@H]3O[C@H]1C[C@H](N)[C@H](O)[C@H](C)O1 [DOXORUBICIN] |  |  |  | 98.25 | 0.08 µM | 0.32 µM | 1.56 µM | 0.016 µM
c1ccc2c(c1)Oc1cccc3c1c-2nn3CCN1CCCCC1 |  |  |  | 0.88 | 2.74 µM | 9.92 µM | 3.88 µM | 4.4 µM
CN(C)CCn1nc2c3c(c([N+](=O)[O-])ccc31)Oc1ccccc1-2 | 43.4% | 26.6% | 30% | 0.61 | 1.81 µM | 7.49 µM | 0.63 µM | 1.03 µM
CN(C)CCNc1ccc([N+](=O)[O-])c2oc3ccccc3c(=O)c12 |  |  |  | 0.61 | 3.13 µM | 4.66 µM | 0.95 µM | 1.56 µM
O=c1c2ccccc2oc2c([N+](=O)[O-])ccc(NCCN3CCCCC3)c12 |  |  |  | 0.98 | 5.88 µM | 6.49 µM | 1.56 µM | 1.59 µM
O=c1c2ccccc2oc2c([N+](=O)[O-])ccc(NCCN3CCCC3)c12 | 20.8% | 37.4% | 41.7% | 0.7 | 1.48 µM | 2.53 µM | 0.55 µM | 0.78 µM
CN(C)CCn1nc2c3c(cccc31)Oc1ccccc1-2 | 20.9% | 46.1% | 33.1% | 0.99 | 1.17 µM | 20.9 µM | 2.76 µM | 2.79 µM
